Assay results as given in US6489351B1, “Condensed 4,5,6,7-tetrahydrobenzo[C]thiophenes as enhancer for cell differentation induction factor action” (Takeda Chemical Industries, Ltd., priority 1996, dated 2002).

Experiments:
[1] = system: Mouse-derived osteoblast strain MC3T3-E1; assay: Alkaline phosphatase production induction capability in mouse osteoblast strain; assay type: cell-based; settings: compound 10^−5 M, 72 hours, mean±S.E.; for Alkaline Phosphate Activity (A405 × 1,000), BMP Added (3 ng/ml): 3 ng/ml BMP-4/7 heterodimer, control 397 ± 30 (Experiment 4), 420 ± 1 (Experiment 5); for Alkaline Phosphate Activity (A405 × 1,000), BMP Not Added: no BMP, control 135 ± 2 (Experiment 4), 141 ± 8 (Experiment 5)
Experimental: Mouse-derived osteoblast strain MC3T3-E1 in α-MEM containing 10% fetal calf serum (FCS) was seeded to 96-well plates (8,000 cells/well); two days later, the sample, previously diluted with a medium containing or not containing 3 ng/ml BMP-4/7 of heterodimer (described in EP-A-0626451) to each concentration shown in Table 2, was added to the cells reaching a confluent state, followed by cultivation for 72 hours. After each plate was once washed with saline, substrate solution was added, followed by incubation at room temperature for 15 minutes. The reaction was stopped by 0.05 N sodium hydroxide, and the absorbance at 405 nm was determined. The values obtained are given in mean±S.E. in Table 2. The data were statistically analyzed by Student's t-test.

[2] = system: stromal cells prepared from the femoral marrow of a normal rat; assay: Osteogenesis-promoting action: alkaline phosphatase activity in rat femoral marrow stromal cells; assay type: cell-based; settings: mean±SE
Experimental: Using stromal cells prepared from the femoral marrow of a normal rat, alkaline phosphatase activity was determined as an index of osteogenesis. Specifically, stromal cells, prepared from the femoral marrow of a 7-week-old male Sprague-Dawley rat by the method of Maniatopoulos et al. [Cell Tissue Research, Vol. 254, p. 317 (1988)], were cultured in an α-MEM (minimum essential medium) solution containing both dexamethasone (10^−7 M) and β-glycerophosphoric acid (10^−2 M) to obtain calcified osteoid tissue. […] After washing with phosphate buffer, the cells were homogenized with 0.2% Nonidet P-40 and centrifuged at 3,000 rpm for 10 minutes. The resulting supernatant was assayed for alkaline phosphatase activity by the method of Lowry et al. [Journal of Biological Chemistry, Vol. 207, p. 19 (1954)]. The values obtained are given in mean±SE in Table 1. The data-were statistically analyzed by Student's t-test.

[3] = compound 10^−5 M, control 694.9 ± 22.7 (Experiment 1), 608.4 ± 20.9 (Experiment 2)
[4] = compound 10^−6 M, Experiment 3, control 63.1 ± 5.0

CCOP(=O)(Cc1ccc(NC(=O)c2cc3c(s2)-c2c(SC)sc(C(=O)Nc4ccc(CP(=O)(OCC)OCC)cc4)c2CC3)cc1)OCC
melting point: 262 to 263 °C

CCOC(=O)c1sc(SC)c2c1CCc1sc(C)nc1-2 [Example 1, ethyl 4,5-dihydro-2-methyl-8-methylthiothieno[3,4-e]benzothiazole-6-carboxylate]
melting point: 143 to 144 °C

CCOC(=O)c1sc(SC)c2c1CCc1sc(-c3ccccc3)nc1-2 [Example 2, ethyl 4,5-dihydro-8-methylthio-2-phenylthieno[3,4-e]benzothiazole-6-carboxylate]
melting point: 153 to 154 °C

CCCSc1sc(C(=O)OCC)c2c1-c1nc(-c3ccccc3)sc1CC2 [Example 3, ethyl 4,5-dihydro-2-phenyl-8-propylthiothieno[3,4-e]benzothiazole-6-carboxylate]
melting point: 125 to 126 °C

CCOC(=O)c1oc(SC)c2c1CCc1sc(-c3ccccc3)nc1-2 [Example 4, ethyl 4,5-dihydro-8-methylthio-2-phenylfuro[3,4-e]benzothiazole-6-carboxylate]
melting point: 170 to 171 °C

CCOC(=O)c1sc(SC)c2c1CCC(NC(C)=O)C2=O (stereo not shown) [Example 11, ethyl 5-acetylamino-4,5,6,7-tetrahydro-3-methylthio-4-oxobenzo[c]thiophene-1-carboxylate]
melting point: 215 to 216 °C

CCOC(=O)c1sc(SC(C)C)c2c1CCC(NC(C)=O)C2=O (stereo not shown) [Example 12, ethyl 5-acetylamino-4,5,6,7-tetrahydro-3-isopropylthio-4-oxobenzo[c]thiophene-1-carboxylate]
melting point: 170 to 171 °C

CCCSc1sc(C(=O)OCC)c2c1C(=O)C(NC(=O)CC)CC2 (stereo not shown) [Example 13, ethyl 4,5,6,7-tetrahydro-4-oxo-5-propionylamino-3-propylthiobenzo[c]thiophene-1-carboxylate]
melting point: 191 to 192 °C

CCOC(=O)c1sc(SC)c2c1CCc1nc(C)oc1-2 [Example 17, ethyl 4,5-dihydro-2-methyl-8-methylthiothieno[3,4-g]benzoxazole-6-carboxylate]
melting point: 131 to 132 °C

CCOC(=O)c1sc(SC(C)C)c2c1CCc1nc(C)oc1-2 [Example 18, ethyl 4,5-dihydro-8-isopropylthio-2-methylthieno[3,4-g]benzoxazole-6-carboxylate]
melting point: 62 to 63 °C

CCOC(=O)c1sc(SC)c2c1CCc1nc(-c3ccccc3)[nH]c1-2 [Example 21, ethyl 4,5-dihydro-8-methylthio-2-phenylthieno[3,4-e]benzimidazole-6-carboxylate]
melting point: 218 to 219 °C

CSc1sc(C(=O)O)c2c1-c1nc(C)sc1CC2 [Example 22, 4,5-dihydro-2-methyl-8-methylthiothieno[3,4-e]benzothiazole-6-carboxylic acid]
melting point: 273 to 274 °C

CSc1sc(C(=O)O)c2c1-c1nc(-c3ccccc3)sc1CC2 [Example 23, 4,5-dihydro-8-methylthio-2-phenylthieno[3,4-e]benzothiazole-6-carboxylic acid]
melting point: 255 to 256 °C (dec.)

CCCSc1sc(C(=O)O)c2c1-c1nc(-c3ccccc3)sc1CC2 [Example 24, 4,5-dihydro-2-phenyl-8-propylthiothieno[3,4-e]benzothiazole-6-carboxylic acid]
melting point: 236 to 237 °C (dec.)

Cc1nc2c(o1)-c1c(SC(C)C)sc(C(=O)O)c1CC2 [Example 33, 4,5-dihydro-8-isopropylthio-2-methylthieno[3,4-g]benzoxazole-6-carboxylic acid]
melting point: 277 to 278 °C

CSc1sc(C(N)=O)c2c1-c1nc(C)sc1CC2 [Example 36, 4,5-dihydro-2-methyl-8-methylthiothieno[3,4-e]benzothiazole-6-carboxamide]
Alkaline Phosphate Activity (A405 × 1,000), BMP Added (3 ng/ml) [1]: 618 ± 13 A405 × 1,000 | Alkaline Phosphate Activity (A405 × 1,000), BMP Not Added [1]: 181 ± 6 A405 × 1,000 | melting point: 269 to 270 °C

CCCSc1sc(C(N)=O)c2c1-c1nc(-c3ccccc3)sc1CC2 [Example 37, 4,5-dihydro-2-phenyl-8-propylthiothieno[3,4-e]benzothiazole-6-carboxamide]
melting point: 203 to 204 °C

CSc1sc(C(N)=O)c2c1-c1oc(C)nc1CC2 [Example 46]
Alkaline Phosphatase Activity (nmol p-nitrophenol/min/well) [2, 3]: 1,916.8 ± 26.3 nmol p-nitrophenol/min/well

Cc1nc2c(o1)-c1c(SC(C)C)sc(C(N)=O)c1CC2 [Example 47, 4,5-dihydro-8-isopropylthio-2-methylthieno[3,4-g]benzoxazole-6-carboxamide]
Alkaline Phosphate Activity (A405 × 1,000), BMP Added (3 ng/ml) [1]: 886 ± 35 A405 × 1,000 | Alkaline Phosphate Activity (A405 × 1,000), BMP Not Added [1]: 202 ± 21 A405 × 1,000 | melting point: 230 to 231 °C

CCNC(=O)c1sc(SC)c2c1CCc1sc(-c3ccccc3)nc1-2 [Example 50, N-ethyl-4,5-dihydro-8-methylthio-2-phenylthieno[3,4-e]benzothiazole-6-carboxamide]
Alkaline Phosphatase Activity (nmol p-nitrophenol/min/well) [2, 3]: 1,463 ± 33.4 nmol p-nitrophenol/min/well | melting point: 211 to 212 °C

CCNC(=O)c1sc(SC)c2c1CCc1nc(C)oc1-2 [Example 55]
melting point: 175 to 176 °C

CSc1sc(C(N)=O)c2c1-c1[nH]c(-c3ccccc3)nc1CC2 [Example 68, 4,5-dihydro-8-methylthio-2-phenylthieno[3,4-e]benzimidazole-6-carboxamide]
melting point: 206 to 207 °C

CCOC(=O)c1sc(SC)c2c1CCC(C=O)=C2Cl [Example 69, ethyl 4-chloro-5-formyl-6,7-dihydro-3-methylthiobenzo[c]thiophene-1-carboxylate]
melting point: 79 to 80 °C

CCOC(=O)CSC1=C(C=O)CCc2c(C(=O)OCC)sc(SC)c21 [Example 70, ethyl 4-ethoxycarbonylmethylthio-5-formyl-6,7-dihydro-3-methylthiobenzo[c]thiophene-1-carboxylate]
melting point: 102 to 103 °C

CCOC(=O)c1cc2c(s1)-c1c(SC)sc(C(=O)OCC)c1CC2 [Example 71, diethyl 4,5-dihydro-8-methylthiobenzo[2,1-c:3,4-b′]dithiophene-2,6-dicarboxylate]
melting point: 107 to 108 °C

CSc1sc(C(=O)O)c2c1-c1sc(-c3ccccc3)cc1CC2 [Example 75, 4,5-dihydro-8-methylthio-2-phenylbenzo[2,1-c:3,4-b′]dithiophene-6-carboxylic acid]
melting point: 215 to 217 °C

CSc1sc(C(N)=O)c2c1-c1sc(-c3ccccc3)cc1CC2 [Example 76, 4,5-dihydro-8-methylthio-2-phenylbenzo[2,1-c:3,4-b′]dithiophene-6-carboxamide]
melting point: 192 to 193 °C

CSc1sc(C(=O)NCc2ccc3c(c2)OCO3)c2c1-c1nc(-c3ccccc3)sc1CC2 [Example 90, N-(3,4-methylenedioxybenzyl)-4,5-dihydro-8-methylthio-2-phenylthieno[3,4-e]benzothiazole-6-carboxamide]
Alkaline Phosphatase Activity (nmol p-nitrophenol/min/well) [2, 4]: 102.9 ± 7.3 nmol p-nitrophenol/min/well | melting point: 236 to 237 °C

CSc1sc(C(=O)NCc2ccncc2)c2c1-c1nc(-c3ccccc3)sc1CC2 [Example 91, N-(4-pyridylmethyl)-4,5-dihydro-8-methylthio-2-phenylthieno[3,4-e]benzothiazole-6-carboxamide]
Alkaline Phosphatase Activity (nmol p-nitrophenol/min/well) [2, 4]: 123.2 ± 5.7 nmol p-nitrophenol/min/well | melting point: 189 to 190 °C

CSc1sc(C(=O)Nc2cccnc2)c2c1-c1nc(-c3ccccc3)sc1CC2 [Example 92, N-(3-pyridyl)-4,5-dihydro-8-methylthio-2-phenylthieno[3,4-e]benzothiazole-6-carboxamide]
Alkaline Phosphatase Activity (nmol p-nitrophenol/min/well) [2, 4]: 111.4 ± 2.1 nmol p-nitrophenol/min/well | melting point: 230 to 231 °C

CON(C)C(=O)c1sc(SC)c2c1CCc1sc(-c3ccccc3)nc1-2 [Example 93, N-methoxy-N-methyl-4,5-dihydro-8-methylthio-2-phenylthieno[3,4-e]benzothiazole-6-carboxamide]
Alkaline Phosphatase Activity (nmol p-nitrophenol/min/well) [2, 4]: 159.9 ± 17.5 nmol p-nitrophenol/min/well | melting point: 157 to 158 °C
